For experiment [1], the target named is T1, GST fusion human ERK2 protein (Homo sapiens, UniProt P28482).
T1 construct: purchased Carna Biosciences, Inc; host or cells: E. coli expression system
In words: ERK2 enzyme assay (2). The format is biochemical. Conditions: ERK2 enzyme assay (2); read-out: ERK2 enzyme inhibitory activity (2). Put shortly: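 IC50 values come from mobility-shift measurement of phosphorylated versus unphosphorylated 5-FAM peptide substrate after EDTA quench. Beforehand, compound and 1.25 nmol/L E. coli-expressed GST–human ERK2 stood 15 min at room temperature (pH 7.5), then 1 mmol/L ATP and 4.25 μmol/L substrate (final) were added for 120 min at 25 °C.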

The next experiment deals with T2, human PI3Kα protein (Homo sapiens, UniProt P42336).
T2 construct: purchased Carna Biosciences, Inc; host or cells: baculovirus expression system
In words: PI3Kα enzyme assay (ADP-Glo). In kind it is biochemical. The note with it: read-out: PI3Kα enzyme inhibitory activity. Put shortly:
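Biotinylated human PI3Kα (baculovirus-expressed, 4.5 nmol/L) pre-incubated 15 min with compound in Tris-HCl pH 7.5, MgCl2, BSA; reaction 60 min at 25° C with 50 μmol/L PIP2 and 100 μmol/L ATP final. ADP quantified by ADP-Glo luminescence; IC50 calculated.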

T1 sequence (P28482 whole entry, the tested form may be a part): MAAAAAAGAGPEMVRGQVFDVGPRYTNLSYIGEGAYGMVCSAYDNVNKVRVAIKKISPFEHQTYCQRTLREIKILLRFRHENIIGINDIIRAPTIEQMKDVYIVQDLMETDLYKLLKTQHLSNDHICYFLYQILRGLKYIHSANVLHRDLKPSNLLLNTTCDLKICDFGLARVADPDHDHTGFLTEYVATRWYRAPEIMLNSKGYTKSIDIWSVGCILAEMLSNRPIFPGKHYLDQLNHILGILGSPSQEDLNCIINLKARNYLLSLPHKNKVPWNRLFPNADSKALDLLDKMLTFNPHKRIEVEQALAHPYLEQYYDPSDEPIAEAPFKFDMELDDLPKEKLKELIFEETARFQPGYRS
T2 sequence (P42336 whole entry): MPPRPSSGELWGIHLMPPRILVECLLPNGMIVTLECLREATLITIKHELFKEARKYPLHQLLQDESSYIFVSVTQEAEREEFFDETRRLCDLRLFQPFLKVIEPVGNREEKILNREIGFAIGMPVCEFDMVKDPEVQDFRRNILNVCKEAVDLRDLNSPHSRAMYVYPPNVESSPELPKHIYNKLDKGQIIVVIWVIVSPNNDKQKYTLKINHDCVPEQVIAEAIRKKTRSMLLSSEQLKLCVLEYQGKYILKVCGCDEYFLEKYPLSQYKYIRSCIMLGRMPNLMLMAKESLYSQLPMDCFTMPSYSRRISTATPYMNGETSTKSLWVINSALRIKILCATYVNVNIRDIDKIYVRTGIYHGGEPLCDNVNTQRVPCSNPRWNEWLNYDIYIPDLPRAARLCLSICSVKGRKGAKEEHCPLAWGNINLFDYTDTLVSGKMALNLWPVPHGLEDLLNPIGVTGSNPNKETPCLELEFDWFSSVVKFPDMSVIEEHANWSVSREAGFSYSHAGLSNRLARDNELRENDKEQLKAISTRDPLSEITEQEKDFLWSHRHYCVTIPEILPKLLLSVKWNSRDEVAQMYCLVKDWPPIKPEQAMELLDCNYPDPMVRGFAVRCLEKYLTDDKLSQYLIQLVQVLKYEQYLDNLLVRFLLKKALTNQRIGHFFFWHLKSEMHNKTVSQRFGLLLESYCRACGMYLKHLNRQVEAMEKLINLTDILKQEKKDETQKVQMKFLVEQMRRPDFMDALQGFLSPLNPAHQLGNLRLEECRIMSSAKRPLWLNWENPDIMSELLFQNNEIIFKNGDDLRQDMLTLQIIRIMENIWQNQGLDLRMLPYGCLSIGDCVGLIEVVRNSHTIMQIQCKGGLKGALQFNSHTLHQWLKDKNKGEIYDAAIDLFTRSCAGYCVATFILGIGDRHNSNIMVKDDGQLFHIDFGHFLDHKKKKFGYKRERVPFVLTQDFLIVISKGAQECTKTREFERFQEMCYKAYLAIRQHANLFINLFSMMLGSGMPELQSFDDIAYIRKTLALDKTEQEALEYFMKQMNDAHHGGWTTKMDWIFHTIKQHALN
T2 sequence (P27986 whole entry partner): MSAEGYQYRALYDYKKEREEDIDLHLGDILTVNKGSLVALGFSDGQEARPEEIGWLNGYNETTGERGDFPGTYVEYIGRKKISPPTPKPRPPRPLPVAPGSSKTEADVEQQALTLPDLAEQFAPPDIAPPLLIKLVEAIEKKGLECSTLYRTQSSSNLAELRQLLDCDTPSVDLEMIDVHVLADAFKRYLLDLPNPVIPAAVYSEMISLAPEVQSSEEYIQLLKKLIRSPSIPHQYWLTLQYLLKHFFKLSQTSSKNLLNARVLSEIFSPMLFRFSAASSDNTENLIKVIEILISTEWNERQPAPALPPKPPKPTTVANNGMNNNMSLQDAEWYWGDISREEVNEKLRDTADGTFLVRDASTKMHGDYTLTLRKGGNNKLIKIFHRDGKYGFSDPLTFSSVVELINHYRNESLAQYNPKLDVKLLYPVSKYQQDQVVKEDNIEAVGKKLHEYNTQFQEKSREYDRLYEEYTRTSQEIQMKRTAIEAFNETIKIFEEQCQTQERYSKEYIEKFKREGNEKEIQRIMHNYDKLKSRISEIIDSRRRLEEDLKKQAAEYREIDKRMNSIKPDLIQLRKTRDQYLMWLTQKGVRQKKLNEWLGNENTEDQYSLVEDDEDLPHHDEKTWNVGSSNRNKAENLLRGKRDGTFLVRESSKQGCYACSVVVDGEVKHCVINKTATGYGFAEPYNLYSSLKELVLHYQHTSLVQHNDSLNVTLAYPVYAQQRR

`CC(=O)N1CCC(Cn2cc(-c3cnc4ccc(Nc5cc(C(C)C)cnn5)nc4c3)cn2)CC1` [Example 0528, 1-(4-((4-(6-((5-Isopropylpyridazin-3-yl)amino)-1,5-naphthyridin-3-yl)-1H-pyrazol-1-yl)methyl)piperidin-1-yl)ethanone]: the IC50 (in experiment [1]; on human PI3Kα protein) was below 1000 nM each time.
As to `CC(C)c1cnnc(Nc2ccc3ncc(-c4cnn(CC5CCN(C(=O)N(C)C)CC5)c4)cc3n2)c1` [Example 0529], the IC50 (in experiment [1]; at human PI3Kα protein) was below 1000 nM each time.
Turning to `CCN(CC)C(=O)N1CCC(Cn2cc(-c3cnc4ccc(Nc5cc(C(C)C)cnn5)nc4c3)cn2)CC1` [Example 0531], the IC50 (in experiment [1]; on human PI3Kα protein) was below 1000 nM in each case.
In the case of `CC(C)c1cnnc(Nc2ccc3ncc(-c4cnn(CC5CCN(C(=O)N6CCOCC6)CC5)c4)cc3n2)c1` [Example 0532], the IC50 (in experiment [1]; on human PI3Kα protein) was below 1000 nM throughout.
Consider `CC(C)c1cnnc(Nc2ccc3ncc(-c4cnn(CC5CCN(C(=O)N6CCCCC6)CC5)c4)cc3n2)c1` [Example 0533], for which the IC50 (in experiment [1]; at human PI3Kα protein) was below 1000 nM throughout.
On to `CC(C)c1cnnc(Nc2ccc3ncc(-c4cnn(CC5CCN(C(=O)C6CC6)CC5)c4)cc3n2)c1` [Example 0534], for which the IC50 (in experiment [1]; at human PI3Kα protein) was below 1000 nM throughout.
`CC(C)CC(=O)N1CCC(Cn2cc(-c3cnc4ccc(Nc5cc(C(C)C)cnn5)nc4c3)cn2)CC1` [Example 0535]: the IC50 (in experiment [1]; on human PI3Kα protein) was below 1000 nM each time.
In the case of `CC(C)C(=O)N1CCC(Cn2cc(-c3cnc4ccc(Nc5cc(C(C)C)cnn5)nc4c3)cn2)CC1` [Example 0536], the IC50 (in experiment [1]; at human PI3Kα protein) was below 1000 nM in each case.
For the molecule `COCC(=O)N1CCC(Cn2cc(-c3cnc4ccc(Nc5cc(C(C)C)cnn5)nc4c3)cn2)CC1` [Example 0537], the IC50 (in experiment [1]; on human PI3Kα protein) was below 1000 nM each time.
For `CC(C)c1cnnc(Nc2ccc3ncc(-c4cnn(CC5CCN(C(=O)C6CCCCC6)CC5)c4)cc3n2)c1` [Example 0538], the IC50 (in experiment [1]; on human PI3Kα protein) was below 1000 nM in each case.
`CC(C)c1cnnc(Nc2ccc3ncc(-c4cnn(CC5CCN(C(=O)N6CCCC6)CC5)c4)cc3n2)c1` [Example 0539]: the IC50 (in experiment [1]; at human PI3Kα protein) was below 1000 nM in each case.
In the case of `CC(=O)N1CCC(Nc2cnc3ccc(Nc4cc(C(C)C)cnn4)nc3c2)CC1` [Example 0540, 1-(4-((6-((5-Isopropylpyridazin-3-yl)amino)-1,5-naphthyridin-3-yl)amino)piperidin-1-yl)ethanone], the IC50 in experiment [1] is 1000 to 10000 nM; at human PI3Kα protein, below 1000 nM.
The corresponding values for `CC(=O)N1CCCC(Nc2cnc3ccc(Nc4cc(C(C)C)cnn4)nc3c2)C1` (stereo not shown) [Example 0541] are 1000 to 10000 nM and below 1000 nM.
In the same order, the values of `CCc1cnnc(Nc2ccc3ncc(-c4cn(C)nc4-c4cccnc4)cc3n2)c1` [Example 0542, N-(5-ethylpyridazin-3-yl)-7-(1-methyl-3-(pyridin-3-yl)-1H-pyrazol-4-yl)-1,5-naphthyridine-2-amine] are below 1000 nM and below 1000 nM.
Turning to `Cn1cc(-c2cnc3ccc(Nc4cc(C(C)(C)O)cnn4)nc3c2)cn1` [Example 0543, 2-(6-((7-(1-Methyl-1H-pyrazol-4-yl)-1,5-naphthyridin-2-yl)amino)pyridazin-4-yl)propan-2-ol], the IC50 (in experiment [1]; at human PI3Kα protein) was below 1000 nM each time.
With `CC(C)NC(=O)N1CCC(Cn2cc(-c3cnc4ccc(Nc5cc(C(C)C)cnn5)nc4c3)cn2)CC1` [Example 0544], the IC50 (in experiment [1]; at human PI3Kα protein) was below 1000 nM throughout.
Regarding `Cc1nn(C)cc1-c1cnc2ccc(Nc3cc(C(C)(C)O)cnn3)nc2c1` [Example 0547], the IC50 (in experiment [1]; on human PI3Kα protein) was below 1000 nM in each case.
As to `CC(=O)N1CCCC(Cn2cc(-c3cnc4ccc(Nc5cc(C(C)C)cnn5)nc4c3)cn2)C1` (stereo not shown) [Example 0548], the IC50 (in experiment [1]; on human PI3Kα protein) was below 1000 nM in each case.
In the case of `CC(C)c1ccnc(Nc2ccc3ncc(-c4cnn(C)c4)cc3n2)c1` [Example 0551, N-(4-isopropylpyridin-2-yl)-7-(1-methyl-1H-pyrazol-4-yl)-1,5-naphthyridine-2-amine], the IC50 in experiment [1] is 10000 to 50000 nM; on human PI3Kα protein, below 1000 nM.
For `CC(C)c1cnnc(Nc2ccc3ncc(-c4cn(C)nc4-c4cncnc4)cc3n2)c1` [Example 0553], the IC50 (in experiment [1]; at human PI3Kα protein) was below 1000 nM each time.
Take `Cn1cc(-c2cnc3ccc(Nc4cc(N5CCOCC5)cnn4)nc3c2)cn1` [Example 0554, 7-(1-methyl-1H-pyrazol-4-yl)-N-(5-morpholinopyridazin-3-yl)-1,5-naphthyridine-2-amine]: the IC50 (in experiment [1]; on human PI3Kα protein) was below 1000 nM in each case.
Regarding `Cc1cncc(-c2nn(C)cc2-c2cnc3ccc(Nc4cc(C(C)C)cnn4)nc3c2)c1` [Example 0555], the IC50 (in experiment [1]; at human PI3Kα protein) was below 1000 nM each time.
Consider `CC(C)c1cnnc(Nc2ccc3ncc(-c4cnn(C[C@@H]5CCC(=O)N5)c4)cc3n2)c1` [Example 0556], for which the IC50 (in experiment [1]; at human PI3Kα protein) was below 1000 nM throughout.
For the molecule `CC(C)c1cnnc(Nc2ccc3ncc(-c4cnn(CC(=O)N5CCOCC5)c4)cc3n2)c1` [Example 0558], the IC50 (in experiment [1]; on human PI3Kα protein) was below 1000 nM in each case.
Regarding `Cn1cc(-c2cnc3ccc(Nc4cc(C(C)(C)CO[Si](C)(C)C(C)(C)C)cnn4)nc3c2)cn1` [Example 0559, N-(5-(1-((tert-butyldimethylsilyl)oxy)-2-methylpropan-2-yl)pyridazin-3-yl)-7-(1-methyl-1H-pyrazol-4-yl)-1,5-naphthyridine-2-amine], the IC50 was below 1000 nM in experiment [1] and 10000 to 50000 nM on human PI3Kα protein.
The corresponding values for `Cn1cc(-c2cnc3ccc(Nc4cc(C(C)(C)CO)cnn4)nc3c2)cn1` [Example 0560, 2-methyl-2-(6-((7-(1-methyl-1H-pyrazol-4-yl)-1,5-naphthyridin-2-yl)amino)pyridazin-4-yl)propan-1-ol] are below 1000 nM and below 1000 nM.
In the same order, the values of `CC(C)c1cnnc(Nc2ccc3ncc(-c4cnn(CC(=O)N5CCCCC5)c4)cc3n2)c1` [Example 0561] are below 1000 nM and below 1000 nM.
As to `COCC(C)(C)c1cnnc(Nc2ccc3ncc(-c4cnn(C)c4)cc3n2)c1` [Example 0562], the IC50 (in experiment [1]; on human PI3Kα protein) was below 1000 nM throughout.
For `CC(C)c1cnnc(Nc2ccc3ncc(-c4cnn(C5CC5)c4)cc3n2)c1` [Example 0563, 7-(1-Cyclopropyl-1H-pyrazol-4-yl)-N-(5-isopropylpyridazin-3-yl)-1,5-naphthyridine-2-amine], the IC50 (in experiment [1]; on human PI3Kα protein) was below 1000 nM in each case.
In the case of `Cn1cc(-c2cnc3ccc(Nc4cc(C5CC5)cnn4)nc3c2)cn1` [Example 0564], the IC50 (in experiment [1]; at human PI3Kα protein) was below 1000 nM each time.
As for `Cc1nn(C)cc1-c1cnc2ccc(Nc3cc(C4CC4)cnn3)nc2c1` [Example 0565], the IC50 (in experiment [1]; at human PI3Kα protein) was below 1000 nM each time.
For `CC(C)c1cnnc(Nc2ccc3ncc(-c4cnn(C[C@H]5CCC(=O)N5)c4)cc3n2)c1` [Example 0566], the IC50 (in experiment [1]; at human PI3Kα protein) was below 1000 nM in each case.
In the case of `CC(C)c1cnnc(Nc2ccc3ncc(-c4cnn(C[C@H]5CCC(=O)N5C)c4)cc3n2)c1` [Example 0568], the IC50 (in experiment [1]; on human PI3Kα protein) was below 1000 nM in each case.
`CCC(C)c1cnnc(Nc2ccc3ncc(-c4cnn(C)c4)cc3n2)c1` (stereo not shown) [Example 0569]: the IC50 (in experiment [1]; on human PI3Kα protein) was below 1000 nM in each case.
Regarding `CC(C)Cc1cnnc(Nc2ccc3ncc(-c4cnn(C)c4)cc3n2)c1` [Example 0571], the IC50 (in experiment [1]; at human PI3Kα protein) was below 1000 nM each time.
For `Cc1nc(C)c(-c2cnc3ccc(Nc4cc(C(C)C)cnn4)nc3c2)s1` [Example 0574, 7-(2,4-dimethylthiazol-5-yl)-N-(5-isopropylpyridazin-3-yl)-1,5-naphthyridine-2-amine], the IC50 in experiment [1] was below 1000 nM; at human PI3Kα protein, 1000 to 10000 nM.
In the same order, the values of `CC(C)c1cnnc(Nc2ccc3ncc(-c4cnn(C)c4-c4cccnc4)cc3n2)c1` [Example 0575] are below 1000 nM and below 1000 nM.
Take `Cn1cc(-c2cnc3ccc(Nc4cc(C5CCC5)cnn4)nc3c2)cn1` [Example 0577, N-(5-cyclobutylpyridazin-3-yl)-7-(1-methyl-1H-pyrazol-4-yl)-1,5-naphthyridine-2-amine]: the IC50 (in experiment [1]; on human PI3Kα protein) was below 1000 nM in each case.
`CC(C)c1cnnc(Nc2ccc3ncc(-c4scnc4-c4cccnc4)cc3n2)c1` [Example 0578]: the IC50 (in experiment [1]; on human PI3Kα protein) was below 1000 nM in each case.
Consider `CC(C)c1cnnc(Nc2ccc3ncc(-c4cn(C)nc4-c4ccccc4)cc3n2)c1` [Example 0579], for which the IC50 (in experiment [1]; at human PI3Kα protein) was below 1000 nM each time.
Regarding `CC(C)c1cnnc(Nc2ccc3ncc(C4=CCOCC4)cc3n2)c1` [Example 0580], the IC50 (in experiment [1]; on human PI3Kα protein) was below 1000 nM in each case.
For `CC(C)c1cnnc(Nc2ccc3ncc(-c4cnn(CC5CC5)c4)cc3n2)c1` [Example 0581], the IC50 (in experiment [1]; on human PI3Kα protein) was below 1000 nM each time.
In the case of `CC(C)c1cnnc(Nc2ccc3ncc(-c4cn(C)nc4-c4cnn(C)c4)cc3n2)c1` [Example 0582], the IC50 (in experiment [1]; on human PI3Kα protein) was below 1000 nM in each case.
With `COc1ccc(-c2nn(C)cc2-c2cnc3ccc(Nc4cc(C(C)C)cnn4)nc3c2)cc1` [Example 0584], the IC50 (in experiment [1]; at human PI3Kα protein) was below 1000 nM throughout.

The values above are taken from US9783536B2, “Nitrogen-containing heterocyclic compound or salt thereof” (FUJIFILM Corporation, priority 2013, dated 2017).
